The values below come from patent US20100267682A1, “CORTICOSTEROIDS TO TREAT EPOTHILONE OR EPOTHILONE DERIVATIVE INDUCED DIARRHEA” (NOVARTIS AG, priority 2007, published 2010).

One series has as its system BDix rats. The experiment in a line: Patupilone-induced diarrhea scoring in BDix rats (grade 0-3, AUC days 3-7, days > G1). The conditions noted are these: for Diarrh: Days > G1: BDix rats with s.c. A15 glioma; for Diarrhoea reduction (T/C) >G1D3-D6 / Diarrhoea reduction (T/C) AUCD3-D7: PAT 1.5 mg/kg i.v. D0, vs patupilone alone. The protocol:
They are idendified by ear markings and kept in groups of 4 under normal conditions with access to food and water as libitum. Tumors: Rat glioma cells, A15 (aks 1a2r) are obtained from ECACC. […] Tumors are induced by concentrating 5×10^5 cells in 50 μl and injecting s.c. in the flank of the rats. […] Generally experiments begin when the tumors are >150 mm^3. Patupilone: Patupilone is weighed and dissolved in a vehicle of 30% PEG-300 and 70% normal saline to a final concentration of 1 mg/ml. Patupilone is injected i.v. in the tail vein as a bolus of 2-3 seconds at a dose of 1.5 mg/kg once. […] The suspension is sonicated for 30 min to achieve a milky suspension for oral administration (5 mL/kg).
Although prednisolone is administered orally daily, the dose and number of days of treatment are different in each experiment. The doses are 1, 3, 7 or 10 mg/kg which is roughly equivalent to 6, 17, 40 and 60 mg/m^2, respectively. When prednisolone and patupilone treatment are on the same day, prednisolone is administered 2-4 hours after treatment with patupilone.
Diarrhea: Diarrhea is monitored daily from day 3 post injection fo patupilone which is on day 0. Diarrhea is scored as follows:
Grade 1: soft but formed stool
Grade 2: soft unformed stool
Thus, each rat on each day of diarrhea (5 days from day […]) is graded 0-3 which allows a semi-quantitative analysis of the effects of different treatment. Two different abalytical methods are applied using a) area under the curve (AUCdays3-7) calculated using the trapezoidal rule as applied by Graphpad Prism (v. 4.0 for Windows) and b) the numbere of days in which diarrhea is graded >1. It is believed that the second approach is a more realistic comparison to the clinic since as described above G≦1 is not really diarrhea, and in the clinic, the major issue is avoiding severe diarrhea, i.e. clinical grades of ≧2.
After 10 days the rats are treated on day-0 once with patupilone (PAT) at 1.5 mg/kg i.v. bolus (G2, G4-G7) or PAT-vehicle (G1 & G3). All rats treated with prednisolone (Predn) received the drug p.o. at 7 mg/kg for 5 consecutive days (except G7 for 3 days only) either 1-day before (G4), on the same day (G7), 1-day after patupilone (G6) or 3-days after patupilone (G5).
Rats receive 7 mg/kg prednisolone (Predn) or the Predn-vehicle p.o. for 5 consecutive days (except G3 for 3 days) starting either on Day-0 (G1-G3) or after 24 hr (D+1) or 24 hr prior to PAT (D−1).

For another series, the system named is Rat glioma cells, A15. The experiment in a line: BDix rat tumor model: s.c. A15 glioma tumour response. The conditions noted are these: for T/C Day-14: ΔTVol drug/ΔTVol vehicle. The format is in vivo. An excerpt: As the T/CTVol, i.e. [ΔTVOldrug/ΔTVolvehicle].
The procedure of series [1]:
They are idendified by ear markings and kept in groups of 4 under normal conditions with access to food and water as libitum. Tumors: Rat glioma cells, A15 (aks 1a2r) are obtained from ECACC. […] Tumors are induced by concentrating 5×10^5 cells in 50 μl and injecting s.c. in the flank of the rats. […] Generally experiments begin when the tumors are >150 mm^3. Patupilone: Patupilone is weighed and dissolved in a vehicle of 30% PEG-300 and 70% normal saline to a final concentration of 1 mg/ml. Patupilone is injected i.v. in the tail vein as a bolus of 2-3 seconds at a dose of 1.5 mg/kg once.
Efficacy and Tolerability: Tumor volume (Tvol) is quantified by change in tumor volume (endpoint vs. starting value in mm^3). As the T/CTVol, i.e. [ΔTVOldrug/ΔTVolvehicle]. The body weight of the rats is measured three times per week.
After 10 days the rats are treated on day-0 once with patupilone (PAT) at 1.5 mg/kg i.v. bolus (G2, G4-G7) or PAT-vehicle (G1 & G3). All rats treated with prednisolone (Predn) received the drug p.o. at 7 mg/kg for 5 consecutive days (except G7 for 3 days only) either 1-day before (G4), on the same day (G7), 1-day after patupilone (G6) or 3-days after patupilone (G5). […]

Series [2] can be described thus: Total PAT exposure (AUC) in blood, tissues and tumor of BDix rats. It counts as in vivo, rat. The conditions noted are these: for AUC24-336 hr (total PAT exposure): Example 4, mean ± SD, n = 3, PAT 1.5 mg/kg i.v. day 0, G2 Predn-vehicle or G4 Predn 7 mg/kg p.o. 5 days (D-1).
Experimental: G4 received prednisolone (Predn) p.o. at 7 mg/kg for 5 consecutive days while G2 received Predn-vehicle only for 5 days.
Series [3] relates to HRPC (hormone-refractory prostate cancer) patients. In words: Clinical trial in HRPC patients: patupilone-induced diarrhea. The format is in vivo, human. The conditions noted are these: 10 mg (ca. 5.5 mg/m^2) prednisone per day. Here is the method:
HRPC (hormone-refractory prostate cancer) patients in a clinical trial are getting 10 mg (ca. 5.5 mg/m^2) prednisone per day.

Where [4] appears, read: Example 1, BDix rats, PAT 1.5 mg/kg i.v. once + Predn vehicle p.o. 7 days.
Where [5] appears, read: Example 3 G2, PAT 1.5 mg/kg i.v. day 0 + Predn vehicle.
The mark [6] stands for this setting: Example 5 G1, BDix rats, PAT 1.5 mg/kg i.v. Day 0 + Veh-Predn p.o. 5 days (D0).
Where [7] appears, read: Example 2, BDix rats with s.c. A15 glioma, PAT 1.5 mg/kg i.v. once + Predn vehicle p.o. 7 days.
Where [8] appears, read: Example 3 G2, BDix rats with s.c. A15 glioma, PAT 1.5 mg/kg i.v. day 0 + Predn vehicle.
Setting [9] is: Example 1, Predn 1 mg/kg (6 mg/m^2) p.o. 7-days from D0.
Setting [10] is: Example 1, Predn 3 mg/kg (17 mg/m^2) p.o. 7-days from D0.
Setting [11] is: Example 1, Predn 10 mg/kg (60 mg/m^2) p.o. 7-days from D0.
[12] abbreviates: Example 2, Predn 3 mg/kg (17 mg/m^2) p.o. 7-days from D0.
The mark [13] stands for this setting: Example 2, Predn 10 mg/kg (60 mg/m^2) p.o. 7-days from DO.
The mark [14] stands for this setting: Example 3, Predn 7 mg/kg (40 mg/m^2) p.o. 3-days from D0.
The mark [15] stands for this setting: Example 3, Predn 7 mg/kg (40 mg/m^2) p.o. 5-days from D+1.
[16] abbreviates: Example 3, Predn 7 mg/kg (40 mg/m^2) p.o. 5-days from D−1.
The mark [17] stands for this setting: Example 3, Predn 7 mg/kg (40 mg/m^2) p.o. 7-days from D+3.
Where [18] appears, read: Example 3 G3, Predn 7 mg/kg p.o. 5 days + PAT vehicle.
Setting [19] is: Example 5, Predn 7 mg/kg (40 mg/m^2) p.o. 3-days from D0.
Where [20] appears, read: Example 5, Predn 7 mg/kg (40 mg/m^2) p.o. 5-days from D0.
The mark [21] stands for this setting: Example 5, Predn 7 mg/kg (40 mg/m^2) p.o. 5-days from D+1.
The mark [22] stands for this setting: Example 5, Predn 7 mg/kg (40 mg/m^2) p.o. 5-days from D−1.
Setting [23] is: Example 3 G3, BDix rats with s.c. A15 glioma, Predn 7 mg/kg p.o. 5 days + PAT vehicle.

SMILES strings stand for the structures. Like-named read-outs stand apart in the source and are kept apart here. Marks after values point to notes of the source that are not given here.

As to `C/C(=C\c1csc(C)n1)[C@@H]1C[C@@H]2O[C@]2(C)CCC[C@H](C)[C@H](O)[C@@H](C)C(=O)C(C)(C)[C@@H](O)CC(=O)O1` [PAT, epothilone B], the “Diarrhoea: Days > G1” value in the series with BDix rats (setting [4]) was found to be 2.7 ± 0.2 days; with BDix rats (setting [6]), 1.5 ± 0.3 days. The “Diarrh: Days > G1” value is 1.7 ± 0.3 days with BDix rats (Example 2, PAT 1.5 mg/kg i.v. once + Predn vehicle p.o. 7 days) and 2.9 ± 0.3 days with BDix rats (setting [5]). For the same molecule, the “Tumour Wt” value with Rat glioma cells, A15 (setting [7]) came out at 0.83 ± 0.17 g. Moreover, in the series on Rat glioma cells, A15 (setting [8]), the “ΔTVol Day-14” value is recorded as 277 ± 37. Further, the “T/C Day-14” value in the series on Rat glioma cells, A15 (setting [5]) is recorded as 0.35*. Further, the figures for the “BW (g) Day-7” value in series [1] (setting [4]) and in series [1] (setting [6]) were 150 ± 3 g and 163 ± 3 g, respectively. Besides, the Survival in series [1] (setting [4]) is on record as 6/6; in series [1] (setting [7]), 6/6; in series [1] (setting [8]), 8/8; in series [1] (setting [6]), 8/8. Also, the “Δ% BW Day-7” value in series [1] (setting [4]) was −16.3 ± 1.3%; in series [1] (setting [8]), −18.6 ± 1.3 %; in series [1] (setting [6]), −12.0 ± 1.2%. Further, the “ΔBW (g) Day-7” value in series [1] (setting [4]) is -29.5 ± 3.1 g. Besides, the “BW (g) Day-6” value in series [1] (setting [7]) was determined as 186 ± 3 g. In series [1] (setting [7]), the “Δ% BW Day-13” value is −4.1 ± 2.1%. Besides, the “BW (g) Day-14” value in series [1] (setting [8]) came to 179 ± 4 g. Besides, the “Δ% BW Day-14” value in series [1] (setting [8]) is listed as −4.4 ± 1.8 %. Also, the “AUC24-336 hr (total PAT exposure)” value in series [2] (Blood) was determined as 1891 ± 344 ng/h/mL; in series [2] (Brain), 64948 ± 6237 ng/h/mL; in series [2] (Caecum) it was 53911 ± 10512 ng/h/mL; in series [2] (Jejunum), 57045 ± 3988 ng/h/mL; in series [2] (Liver) it was 56278 ± 9988 ng/h/mL; in series [2] (Tumor), 142437 ± 36429 ng/h/mL.

On to `C[C@]12C=CC(=O)C=C1CC[C@@H]1[C@@H]2[C@@H](O)C[C@@]2(C)[C@H]1CC[C@]2(O)C(=O)CO` [Predn, prednisolone], for which the “Effect on diarrhea caused by an efficacious dose of patupilone” value in the series with BDix rats (BDix rats, summary of Examples 1-6) is recorded as “able to reproducibly reduce diarrhea”. The “Diarrhoea reduction (T/C) >G1D3-D6” value was 0.81 with BDix rats (setting [9]); 0.13 in the series with BDix rats (setting [10]); 0.06 in the series with BDix rats (setting [11]); 0 in the series on BDix rats (setting [12]); 0 with BDix rats (setting [13]); 0.57 in the series on BDix rats (setting [14]). Besides, the “Diarrhoea reduction (T/C) >G1D3-D6” value in the series with BDix rats (setting [15]) came to 0.52; in the series with BDix rats (setting [16]) it was 0.65; in the series with BDix rats (setting [17]), 0.57; in the series on BDix rats (setting [19]), 0.08; with BDix rats (setting [20]), 0; with BDix rats (setting [21]), 0. The “Diarrhoea reduction (T/C) >G1D3-D6” value with BDix rats (setting [22]) was determined as 0. Moreover, the “Diarrhoea reduction (T/C) AUCD3-D7” value was determined as 0.85 in the series on BDix rats (setting [9]); 0.30 in the series with BDix rats (setting [10]); 0.20 in the series on BDix rats (setting [11]); 0.14 in the series with BDix rats (setting [12]); 0.01 in the series with BDix rats (setting [13]); 0.60 with BDix rats (setting [14]). For the same molecule, the “Diarrhoea reduction (T/C) AUCD3-D7” value in the series with BDix rats (setting [15]) came to 0.57; with BDix rats (setting [16]) it was 0.61; in the series with BDix rats (setting [17]) it was 0.75; in the series on BDix rats (setting [19]) it was 0.11; in the series with BDix rats (setting [20]) it was 0.03; with BDix rats (setting [21]), 0.17. Moreover, the “Diarrhoea reduction (T/C) AUCD3-D7” value in the series with BDix rats (setting [22]) came out at 0.18. In addition, the “Diarrh: Days > G1” value with BDix rats (setting [18]) amounted to 0 days. Besides, the “ΔTVol Day-14” value with Rat glioma cells, A15 (setting [23]) is recorded as 728 ± 93. The “T/C Day-14” value with Rat glioma cells, A15 (setting [18]) was 0.93. Also, the Survival in series [1] (setting [23]) is on record as 8/8. For the same molecule, the “Effect of prednisolone on patupilone exposure” value in series [2] (BDix rats, summary) is recorded as “no evidence that prednisolone interferred with significantly with patupilone exposure”.

`C[C@]12C=CC(=O)C=C1CC[C@@H]1[C@@H]2C(=O)C[C@@]2(C)[C@H]1CC[C@]2(O)C(=O)CO` [prednisone]: the “Effect on epothilone B (patupilone)-induced diarrhea” value in series [3] is “does not seem to have an effect”.
